The record followed here is patent US4145430A, “Beta-lactam compounds, preparation and use” (Beecham Group Limited, priority 1977, dated 1979).

The target of data set [1] is T1, β-lactamase from E. coli JT4 (Escherichia coli, UniProt P62593).
T1 construct: host or cells: E. coli JT4 (the producing strain)
Nature of the data set: β-lactamase inhibition I50. The class given is biochemical. How it is done:
(§1) The I50 values obtained for the product of this example against certain common gram positive and gram negative bacteria were as follows:
(§2) The compound from Example 1 was a potent inhibitor of β-lactamase enzymes as illustrated in the following Table. I50 values were determined using the process described in Belgium Pat. No. 827,926.

Data set [2] deals with T2, β-lactamase from Enterobacter cloacae P99 (Enterobacter cloacae, UniProt P05364).
T2 construct: host or cells: Enterobacter cloacae P99 (the producing strain)
T2 sequence (P05364 21-381): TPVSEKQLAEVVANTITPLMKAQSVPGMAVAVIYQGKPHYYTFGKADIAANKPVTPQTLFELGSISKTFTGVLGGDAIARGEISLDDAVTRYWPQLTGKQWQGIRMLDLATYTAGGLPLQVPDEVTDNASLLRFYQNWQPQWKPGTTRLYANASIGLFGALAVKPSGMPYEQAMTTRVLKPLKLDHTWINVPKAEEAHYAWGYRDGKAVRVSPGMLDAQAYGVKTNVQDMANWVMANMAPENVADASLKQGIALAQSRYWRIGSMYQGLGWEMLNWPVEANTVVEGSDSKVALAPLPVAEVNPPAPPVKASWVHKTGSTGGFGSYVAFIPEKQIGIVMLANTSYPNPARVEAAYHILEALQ
Nature of the data set: β-lactamase inhibition I50. In kind it is biochemical. The method, then:
as §1, §2

In data set [3] the target is β-lactamase from Proteus mirabilis C889. Briefly: β-lactamase inhibition I50. In kind it is biochemical. The method, then:
as §1, §2

Data set [4] addresses lactamase from Ps. aeruginosa. Briefly: β-lactamase inhibition I50. The class given is biochemical. Further details: unit not given here. An excerpt: The I50 values obtained for the product of this example against certain common gram positive and gram negative bacteria were as follows: […]
The target of data set [5] is T3, β-lactamase from Ps. aeruginosa Dalgleish (Pseudomonas aeruginosa, UniProt P16897).
T3 construct: host or cells: Pseudomonas aeruginosa Dalgleish (the producing strain)
T3 sequence (P16897 18-288): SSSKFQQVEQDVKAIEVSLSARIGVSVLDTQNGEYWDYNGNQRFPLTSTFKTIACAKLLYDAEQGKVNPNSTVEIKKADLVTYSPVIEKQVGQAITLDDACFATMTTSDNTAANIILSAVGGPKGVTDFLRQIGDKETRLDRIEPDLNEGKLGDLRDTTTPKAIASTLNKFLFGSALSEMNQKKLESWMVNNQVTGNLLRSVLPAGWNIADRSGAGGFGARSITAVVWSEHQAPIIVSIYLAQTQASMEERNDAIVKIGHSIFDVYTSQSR
Briefly: β-lactamase inhibition I50. The class given is biochemical. How it is done:
as §2

For data set [6], the target named is β-lactamase from Pseudomonas aeruginosa A. Briefly: β-lactamase inhibition I50. In kind it is biochemical. The method, then: as §2
Data set [7] can be described thus: Stability when free of solvent. The class given is physicochemical. The method, then:
The compound of the formula (V) tends to polymerise when free of solvent at room temperature so that it must either be stored in solution (optionally with hydroquinone) or at a low temperature. Preferably the compound of the formula (V) is used shortly after its preparation.
For determination of spectroscopic and biological properties aliquots of the toluene solution were treated in a manner similar to that described above for measurement of the nmr spectrum. The title compound was characterised by the following spectroscopic properties. λmax (EtOH): 277.5 nm. .nu.max (CHCl3): 1797 (β-lactam C= O ), 1670 and 1640 (C=C)cm^-1. δ (CDCl3): 3.36 (d, J 17Hz, 1H, C(6)H), 3.63 (dd, J 17, 2Hz, 1H, C(6)H), 5.22 (dd, J 10.5, 1.0Hz, 1H, olefinic H), 5.49 (dd, J 16, 1.0Hz, 1H, olefinic H), 5.80 (s, 2H, C(5)H and C(2)H), 6.10 (dd, J 16, 10.5Hz, 1H, olefinic H).

For data set [8], the system named is Candida albicans BRL 1003. Briefly: Antifungal activity, paper tape on seeded blood agar base plate. The class given is cell-based. The settings on record: BRL1003; loading of 250 μg on paper tape, Candida albicans BRL 1003, 28° C., 24 hours; read-out: zone of inhibition diameter. The method, then:
The Z-isomer is able to inhibit the growth of Candida albicans. Thus, a loading of 250 μg of the Z-isomer on a paper tape which was contacted with a blood agar base plate seeded with Candida albicans BRL 1003 and incubated at 28° C. for 24 hours produced a zone of inhibition with diameter 22.1 mm.

T1 sequence (P62593 24-286 limits assumed): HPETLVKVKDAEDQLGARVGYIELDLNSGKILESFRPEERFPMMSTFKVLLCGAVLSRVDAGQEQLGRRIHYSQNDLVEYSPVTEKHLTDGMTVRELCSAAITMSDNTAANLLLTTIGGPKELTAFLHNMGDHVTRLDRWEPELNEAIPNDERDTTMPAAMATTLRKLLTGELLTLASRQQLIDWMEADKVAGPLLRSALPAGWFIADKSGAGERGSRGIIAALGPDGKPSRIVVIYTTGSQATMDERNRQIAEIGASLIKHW

The IC50 is the concentration at which inhibition is half-maximal. On to `CC=C1CN2C(=O)C[C@H]2O1` [Example 4, (5R)-3-ethylidene-4-oxa-1-azabicyclo[3.2.0]heptan-7-one], for which the IC50 in data set [1] was 1580 nM; in data set [2] (lactamase from Enterobacter cloacae P 99), 2010 nM. Besides, the I50 in data set [3] was determined as 1.6 µg/mL; in data set [4] it was 0.86.
For `C=CC1=CN2C(=O)C[C@H]2O1` [Example 1, (5R)-7-oxo-3-vinyl-4-oxa-1-azabicyclo[3.2.0]hept-2-ene], the IC50 in data set [1] is 408 nM; in data set [2] (β-lactamase from Enterobacter cloacae P99), 190 nM; in data set [5], 292 nM. The I50 in data set [3] stood at 0.058 µg/mL; in data set [6] it was 0.06 µg/mL. In data set [7], the “stability when free of solvent” value was “readily polymerises”.
A word on the zone of inhibition: it is the extent of the growth-free halo in a diffusion test. As to `C/C=C1/CN2C(=O)C[C@H]2O1` [Z-isomer, Z-(5R)-3-ethylidene-4-oxa-1-azabicyclo[3.2.0]heptan-7-one], the zone of inhibition at 250 µg/disc in data set [8] amounted to 22.1 mm.
